28 molecules from patent publication US20190083521A1, “COMBINATION THERAPY FOR TREATING CANCER” (Epizyme, Inc., priority 2014, published 2019) can be followed below.

Where a name gives a salt, the structure may show the parent alone.

The first test has as its system SKM-1 cells. The test can be described thus: Example 6 combination screen: 300 nM EPZ-5676 pre-treatment, second compound 72 h, ATPLite, IC50 shift.
Conditions: not given
The class given is cell-based, human. The procedure:
Cells were then equilibrated in incubators for 24 hours before treatment with a second compound. Treated assay plates were incubated with a second compound for 72 hours. After this time, plates were developed for endpoint analysis using ATPLite to measure ATP content, which is used as an indicator of cell viability.
“N/D” means that IC50 of the second compound could not be determined for both conditions.
On to Arsenic Trioxide, for which the “Summary of Combination Studies: SKM-1” value is given as 2.0.

Still in this test, the particulars now being: SKM-1 cells; 300 nM EPZ-5676 pre-treatment (4 + 3 days) vs DMSO, then 2nd compound 72 h; ATPLite; IC50 shift of 2nd compound.
As for `CN(C)CC[C@H](CSc1ccccc1)Nc1ccc(S(=O)(=O)NC(=O)c2ccc(N3CCN(Cc4ccccc4-c4ccc(Cl)cc4)CC3)cc2)cc1[N+](=O)[O-]` [ABT-737], the “Summary of Combination Studies: SKM-1” value was “Synergy (considered synergistic if the IC50 value of the second compound decreased by 2-fold or more when EPZ-5676 was added as compared to the DMSO control)”. For `COc1ccc(-c2ccc3c(N4CCOC[C@@H]4C)nc(N4CCOC[C@@H]4C)nc3n2)cc1CO` [AZD 8055], the “Summary of Combination Studies: SKM-1” value is “Synergy (considered synergistic if the IC50 value of the second compound decreased by 2-fold or more when EPZ-5676 was added as compared to the DMSO control)”. Same read-out and setting: the result for `O=C(Nc1cccc(Nc2ncc(Br)c(NCCc3cnc[nH]3)n2)c1)N1CCCC1` [BX-912] reads “Synergy (considered synergistic if the IC50 value of the second compound decreased by 2-fold or more when EPZ-5676 was added as compared to the DMSO control)”; that for `C=C(c1ccc(C(=O)O)cc1)c1cc2c(cc1C)C(C)(C)CCC2(C)C` [Bexarotene], “Synergy (considered synergistic if the IC50 value of the second compound decreased by 2-fold or more when EPZ-5676 was added as compared to the DMSO control)”. On to `COCc1c(C(C)C)nc(C(C)C)c(/C=C/[C@@H](O)C[C@@H](O)CC(=O)O)c1-c1ccc(F)cc1` [Cerivastatin Sodium], for which the “Summary of Combination Studies: SKM-1” value is given as “Synergy (considered synergistic if the IC50 value of the second compound decreased by 2-fold or more when EPZ-5676 was added as compared to the DMSO control)”. In the case of `C#Cc1cccc(Nc2ncnc3cc(OCCOC)c(OCCOC)cc23)c1` [Erlotinib Hydrochloride], the “Summary of Combination Studies: SKM-1” value was “Synergy (considered synergistic if the IC50 value of the second compound decreased by 2-fold or more when EPZ-5676 was added as compared to the DMSO control)”.

As for `CS(=O)(=O)N1CCN(Cc2cc3nc(-c4cccc5[nH]ncc45)nc(N4CCOCC4)c3s2)CC1` [GDC-0941], the “Summary of Combination Studies: SKM-1” value is “Synergy (considered synergistic if the IC50 value of the second compound decreased by 2-fold or more when EPZ-5676 was added as compared to the DMSO control)”. Consider `N#Cc1c(C2CCNCC2)cc(-c2c(O)cccc2OCC2CC2)nc1N` [IKK-2 Inhibitor VIII], for which the “Summary of Combination Studies: SKM-1” value is “Synergy (considered synergistic if the IC50 value of the second compound decreased by 2-fold or more when EPZ-5676 was added as compared to the DMSO control)”.

For `CN(C)C(=O)c1cc2cnc(Nc3ccc(N4CCNCC4)cn3)nc2n1C1CCCC1` [LEE011], the “Summary of Combination Studies: SKM-1” value is listed as “Synergy (considered synergistic if the IC50 value of the second compound decreased by 2-fold or more when EPZ-5676 was added as compared to the DMSO control)”. The same measure, in the same setting: to `NC1(c2ccc(-c3nc4ccn5c(=O)[nH]nc5c4cc3-c3ccccc3)cc2)CCC1` [MK2206] belongs “Synergy (considered synergistic if the IC50 value of the second compound decreased by 2-fold or more when EPZ-5676 was added as compared to the DMSO control)”; to `CC(C)C[C@H](NC(=O)CNC(=O)c1cc(Cl)ccc1Cl)B(O)O` [MLN2238], “Synergy (considered synergistic if the IC50 value of the second compound decreased by 2-fold or more when EPZ-5676 was added as compared to the DMSO control)”. Same read-out and setting: to `C[C@H]1C[C@@H]2[C@H]([C@@H](O)C[C@@]3(C)[C@H]2CC[C@]3(O)C(=O)CO)[C@@]2(C)C=CC(=O)C=C12` [Methylprednisolone] belongs “Synergy (considered synergistic if the IC50 value of the second compound decreased by 2-fold or more when EPZ-5676 was added as compared to the DMSO control)”; to `C=C[C@@]1(C)CC(=O)[C@]2(O)[C@@]3(C)[C@@H](O)CCC(C)(C)[C@@H]3[C@H](OC(=O)CCN(C)C)[C@H](OC(C)=O)[C@@]2(C)O1.Cl` [NKH 477], “Synergy (considered synergistic if the IC50 value of the second compound decreased by 2-fold or more when EPZ-5676 was added as compared to the DMSO control)”. For the molecule `Cc1sc2c(c1C)C(c1ccc(Cl)cc1)=N[C@@H](CC(=O)Nc1ccc(O)cc1)c1nnc(C)n1-2` [OTX015], the “Summary of Combination Studies: SKM-1” value is reported as “Synergy (considered synergistic if the IC50 value of the second compound decreased by 2-fold or more when EPZ-5676 was added as compared to the DMSO control)”. In the case of `CC(C)CC(=O)Nc1[nH]nc2c1CN(C(=O)C1CCN(C)CC1)C2(C)C` [PHA-793887], the “Summary of Combination Studies: SKM-1” value is given as “Synergy (considered synergistic if the IC50 value of the second compound decreased by 2-fold or more when EPZ-5676 was added as compared to the DMSO control)”. For `COc1ccc(Cc2nccc3cc(OC)c(OC)cc23)cc1OC` [Papaverine Hydrochloride], the “Summary of Combination Studies: SKM-1” value is given as “Synergy (considered synergistic if the IC50 value of the second compound decreased by 2-fold or more when EPZ-5676 was added as compared to the DMSO control)”. Regarding `COc1ccc(CCc2nc3cc(-c4c(C)noc4C)ccc3n2C[C@H](C)N2CCOCC2)cc1Cl` [SGC-CBP30], the “Summary of Combination Studies: SKM-1” value is reported as “Synergy (considered synergistic if the IC50 value of the second compound decreased by 2-fold or more when EPZ-5676 was added as compared to the DMSO control)”. `CCN(CC)CCNC(=O)c1c(C)[nH]c(/C=C2\C(=O)Nc3ccc(F)cc32)c1C` [Sunitinib Malate]: the “Summary of Combination Studies: SKM-1” value is recorded as 2.0. On to `CC1=C(/C=C/C(C)=C/C=C/C(C)=C/C(=O)O)C(C)(C)CCC1` [Tretinoin], for which the “Summary of Combination Studies: SKM-1” value was “Synergy (considered synergistic if the IC50 value of the second compound decreased by 2-fold or more when EPZ-5676 was added as compared to the DMSO control)”.

A further test has as its system MOLM-13 (MLL-AF9) cells. The test can be described thus: Combination proliferation assay with Compound A2 (CellTiter-Glo, Chou-Talalay CI). Format: cell-based, human. As to conditions: MOLM13; 7 Day Cotreatment Model. How it is done: The acute myelogenous leukemia cell lines MV4-11 (MLL-AF4) and MOLM-13 (MLL-AF9) were obtained from American Type Culture Collection (ATCC; Rockville, Md.) and Deutsche Sammlung von Mikroorganismen and Zellkulturen (DSMZ; Braunschweig, Germany) respectively.
Studies were performed using MLL-rearranged cell lines in vitro to evaluate the anti-proliferative effect of a combination of two agents together on cell growth. Initial proliferation studies were performed to determine the IC50 of a given compound in each cell line. The cell counts were measured by ATP quantitation using the Promega Cell Titer Glo kit and luminescence values corresponded to the amount of ATP in a given well.
Compounds were evaluated for synergy in the co-treatment phase by testing the compounds in a concentration range which was bracketed around their IC50 values. The compounds were plated to a 96 well plate in a matrix format (FIG. 3) which includes increasing concentrations of each drug in the combination in a constant ratio, in addition to the effect of each compound alone in the study. Cells were seeded and grown in the log-linear phase for 3 or 7 days in the co-treatment phase. Minimum inhibition (DMSO alone) controls were used in each plate to calculate fraction affected (Fa) of a test well. DMSO concentration was kept at 0.1% v/v.
The drug combination analysis was performed utilizing the Chou-Talalay method Synergy was determined using the software package Calcusyn by Biosoft. The combination index (CI) is a quantitative term used to describe the level of synergy or antagonism in a given test system. A combination index less than one indicates synergy, and a CI greater than one indicates antagonism. Further, strong synergism is achieved when the CI value falls below 0.3.
The HP-D300 digital dispenser (Tecan) was used to dispense compounds in a combinatorial matrix. […] Cell viability was measured via ATP content using CellTiter-Glo® (Promega).
Viability was determined using CellTiter-Glo® (Promega).
Cell viability was measured via ATP content using CellTiter-Glo® (Promega).
Proliferation studies were performed using MOLM-13, MV4-11 and SKM-1 cell lines in vitro to evaluate the cancer cell killing effect of a combination of two agents together on cell growth. Initial proliferation studies were performed to determine the IC50 values of a given compound in each cell line. The cell counts were measured by ATP quantitation using the Promega Cell Titer Glo kit and luminescence values correspond to the amount of ATP in a given well.
These studies were performed to evaluate both the combinatorial effect of compounds on cell killing and the durability of the effect by washing out one of the agents.
Compounds evaluated for synergy in the co-treatment phase were tested in a range which was bracketed around the IC50's. The compounds were plated to a 96 well plate in a matrix format which includes increasing concentrations of each drug in the combination in a constant ratio, in addition to the effect of each compound alone in the study. Cells were seeded and grown in the log-linear phase for 3 or 7 days in the cotreatment phase. Maximum and minimum inhibition (DMSO alone) controls were used in each plate to calculate fraction affected (Fa) of a test well. DMSO concentration was kept at 0.1% v/v. The drug combination analysis was performed utilizing the Chou-Talalay method. Synergy was determined using the software package Calcusyn by Biosoft. The combination index (CI) is the term used to describe the level of synergy or antagonism in a given test system. A combination index less than one indicates synergy, and a CI greater than one indicates antagonism.
The drug combination analysis was performed using the Chou-Talalay method. Graphs representing values of combination index (CI) versus Fractional effect (Fa) known as Fa-CI plots were generated and synergy was evaluated.
Background: In ATP-based viability assays light output follows the ATP content of the culture.
In the case of `C[C@@H]1COCCN1c1cc(C2(S(C)(=O)=O)CC2)nc(-c2cccc3[nH]ccc23)n1` [AZ20], the “Combination effect with Compound A2 (Table 5)” value (from here on “Combination effect … (Table 5)”) is given as “Synergy (Drug synergy was statistically defined by CI values less than 1)”.

`Cn1c(=O)n(-c2ccc(C(C)(C)C#N)cc2)c2c3cc(-c4cnc5ccccc5c4)ccc3ncc21` [BEZ235]: the “Combination effect … (Table 5)” value is on record as “Additive (additive effect by CI equal to 1)”. Take `O=C(Nc1ccncc1)c1cc([N+](=O)[O-])ccc1Cl` [Compound T0070907]: the “Combination effect … (Table 5)” value is listed as “Additive (additive effect by CI equal to 1)”. Consider `NC1(c2ccc(-c3nc4ccn5c(=O)[nH]nc5c4cc3-c3ccccc3)cc2)CCC1` [MK2206], for which the “Combination effect … (Table 5)” value is recorded as “Additive (additive effect by CI equal to 1)”.

Still in this test, the particulars now being: MOLM-13 (MLL-AF9); 7 Day Cotreatment Model.
`CC1(C)CCC(CN2CCN(c3ccc(C(=O)NS(=O)(=O)c4ccc(NCC5CCOCC5)c([N+](=O)[O-])c4)c(Oc4cnc5[nH]ccc5c4)c3)CC2)=C(c2ccc(Cl)cc2)C1` [ABT-199]: the “Combination effect with Compound A2 (Table 4)” value (“Combination effect … (Table 4)” for short) is “Additive--> Synergy”. Same read-out and setting: the result for `Nc1cccc2c1CN(C1CCC(=O)NC1=O)C2=O` (centres unmarked) [Lenalidomide] reads “Combination Benefit”; that for `S=c1nc[nH]c2nc[nH]c12` [Mercaptopurine], “Additive--> Synergy”.

Regarding `CC(C)C[C@H](NC(=O)[C@H](Cc1ccccc1)NC(=O)c1cnccn1)B(O)O` [Velcade, bortezomib], the “Combination effect … (Table 4)” value was “Combination Benefit”. For `O=C(CCCCCCC(=O)Nc1ccccc1)NO` [Vorinostat], the “Combination effect … (Table 4)” value is reported as “Additive/Synergy”.
